How the values were obtained:
endogenous cdk2 = endogenous cdk2 kinase activity after transient transfection of NIH/3T3 cells; format: cell-based; conditions: NIH/3T3 transfected with pEF6/V5 constructs; 48 h after transfection
Protocol: Kinase assays: Cell lysates from NIH/3T3 were prepared by resuspending pelleted cells in 500 μl of lysis buffer (50 mM Tris, 5 mM EDTA, 250 mM NaCl, 50 mM NaF, 0.1% Triton, 0.1 mM Na3VO4, plus protease inhibitors). An equal amount of protein for each fraction (100 μg) was immunoprecipitated with a polyclonal anti-cdk2 antibody (De Luca et al., 1997, J Biol Chem, 272, 20971-4). The complexes were pulled down with protein A-Sepharose and washed three times with lysis buffer and twice with lysis buffer containing 400 mM NaCl. The complexes were equilibrated in kinase assay buffer (20 mM HEPES pH 7.4, 10 mM MgAc, […], 1 mM DTT). In order to detect the in vitro inhibition of cdk2 activity, each sample was incubated with an equal amount (0.1 μg) of each pGEX-2T fusion protein, in a final volume of 20 μl of kinase buffer, using 5 μCi/sample of γ-ATP (Amersham Biosciences, Piscataway, N.J.) and 2 μg of Histone H1 for 30 minutes at 30° C. Kinase assays were repeated at least three times, giving an inter assay standard deviation within 10% after normalization for protein amount. […]
In FIG. 3a, asynchronously growing NIH/3T3 cells were transfected with pEF6/V5 vector, pEF6/V5-Spa310 or pEF6/V5-spacer. […] Phosphorylation of histone H1 was monitored by autoradiography. […]

NIH/3T3 cells = experiment: cell cycle analysis by flow cytometry (FACS); format: cell-based; conditions: NIH/3T3 transiently transfected, EGFP-gated; 48 h after transfection; propidium iodide
Protocol: A marker plasmid expressing enhanced green fluorescent protein (EGFP)-spectrin was included in the transfection mixture. Control cells, which were not transfected with EGFP-spectrin, were used as the EGFP-negative population. Cells were harvested and examined for their cell cycle states by fluorescence-activated cell sorter (FACS) analysis. After harvest, cells were fixed by adding ice-cold 70% ethanol while vortexing. Fixed cells were stored at 4° C. for at least 30 min and then washed once with PBS. Cells were then stained with 10 μg/ml propidium iodide (Roche Applied Science, Indianapolis, Ind.), 250 μg/ml RNase (Sigma, St. Louis, Mo.) in PBS and incubated at 37° C. for 30 min in the dark. Transfected cells were gated according to their EGFP expression and the DNA content was determined by flow cytometry analysis. The percentage of cells in the different phases of the cell cycle was measured with a FACS Calibur instrument (Becton-Dickinson, San Jose, Calif.) and the data obtained were analyzed by WinMDI 2.8 software. […]
In FIG. 5a, three plasmids were co-expressed with EGFP-spectrin, in a 1:10 ratio, in transient transfection assays. Cells were harvested 48 hours after transfection, stained with propidium iodide and analyzed by flow cytometric gating for both GFP and propidium iodide. […]

## Spa310: pRb2/p130 amino acids 641-679 (39 amino acids long), SEQ ID NO:3; LTPRRVTEVRADTGGLGRSITSPTTLYDRYSSPPASTTR (listed as Homo sapiens)
Endogenous cdk2
  inhibition of cdk2-dependent histone phosphorylation (endogenous cdk2): significant inhibition
NIH/3T3 cells
  effect on cell cycle distribution: induced a G0/G1 arrest of the cell cycle

B1: Spacer: full-length pRb2/p130 spacer domain, amino acids 616-828 (SEQ ID NO:20) (protein, listed as Homo sapiens)
chain: VPTCEEVMPPQNLERADEICIAGSPLTPRRVTEVRADTGGLGRSITSPTTLYDRYSSPPASTTRRRLFVENDSPSDGGTPGRMPPQPLVNAVPVQNVSGETVSVTPVPGQTLVTMATATVTANNGQTVTIPVQGIANENGGITFFPVQVNVGGQAQAVTGSIQPLSAQALAGSLSSQQVTGTTLQVPGQVAIQQISPGGQQQKQGQSVTSSSN
Endogenous cdk2
  inhibition of cdk2-dependent histone phosphorylation (endogenous cdk2): significant inhibition
NIH/3T3 cells
  effect on cell cycle distribution: induced a G0/G1 arrest of the cell cycle
